Among the data in patent US9546164B2 (GENENTECH, INC., priority 2013, dated 2017) are IC50 values, retold here.

Where a name gives a salt, the structure may show the parent alone.

For one test, the target named is hNav1.7 (Homo sapiens (Human), UniProt Q15858). The test can be described thus: Tritiated sulfonamide competitive binding to membranes from cells expressing hNav1.7 and the β1 subunit.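 Also: Filter-bound radioactivity counted by liquid scintillation, nonspecific binding defined with excess unlabelled ligand, IC50 fitted to percent inhibition of specific binding.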
Chain of hNav1.7 (Q15858 other isoform, or with tags, fused parts or gaps): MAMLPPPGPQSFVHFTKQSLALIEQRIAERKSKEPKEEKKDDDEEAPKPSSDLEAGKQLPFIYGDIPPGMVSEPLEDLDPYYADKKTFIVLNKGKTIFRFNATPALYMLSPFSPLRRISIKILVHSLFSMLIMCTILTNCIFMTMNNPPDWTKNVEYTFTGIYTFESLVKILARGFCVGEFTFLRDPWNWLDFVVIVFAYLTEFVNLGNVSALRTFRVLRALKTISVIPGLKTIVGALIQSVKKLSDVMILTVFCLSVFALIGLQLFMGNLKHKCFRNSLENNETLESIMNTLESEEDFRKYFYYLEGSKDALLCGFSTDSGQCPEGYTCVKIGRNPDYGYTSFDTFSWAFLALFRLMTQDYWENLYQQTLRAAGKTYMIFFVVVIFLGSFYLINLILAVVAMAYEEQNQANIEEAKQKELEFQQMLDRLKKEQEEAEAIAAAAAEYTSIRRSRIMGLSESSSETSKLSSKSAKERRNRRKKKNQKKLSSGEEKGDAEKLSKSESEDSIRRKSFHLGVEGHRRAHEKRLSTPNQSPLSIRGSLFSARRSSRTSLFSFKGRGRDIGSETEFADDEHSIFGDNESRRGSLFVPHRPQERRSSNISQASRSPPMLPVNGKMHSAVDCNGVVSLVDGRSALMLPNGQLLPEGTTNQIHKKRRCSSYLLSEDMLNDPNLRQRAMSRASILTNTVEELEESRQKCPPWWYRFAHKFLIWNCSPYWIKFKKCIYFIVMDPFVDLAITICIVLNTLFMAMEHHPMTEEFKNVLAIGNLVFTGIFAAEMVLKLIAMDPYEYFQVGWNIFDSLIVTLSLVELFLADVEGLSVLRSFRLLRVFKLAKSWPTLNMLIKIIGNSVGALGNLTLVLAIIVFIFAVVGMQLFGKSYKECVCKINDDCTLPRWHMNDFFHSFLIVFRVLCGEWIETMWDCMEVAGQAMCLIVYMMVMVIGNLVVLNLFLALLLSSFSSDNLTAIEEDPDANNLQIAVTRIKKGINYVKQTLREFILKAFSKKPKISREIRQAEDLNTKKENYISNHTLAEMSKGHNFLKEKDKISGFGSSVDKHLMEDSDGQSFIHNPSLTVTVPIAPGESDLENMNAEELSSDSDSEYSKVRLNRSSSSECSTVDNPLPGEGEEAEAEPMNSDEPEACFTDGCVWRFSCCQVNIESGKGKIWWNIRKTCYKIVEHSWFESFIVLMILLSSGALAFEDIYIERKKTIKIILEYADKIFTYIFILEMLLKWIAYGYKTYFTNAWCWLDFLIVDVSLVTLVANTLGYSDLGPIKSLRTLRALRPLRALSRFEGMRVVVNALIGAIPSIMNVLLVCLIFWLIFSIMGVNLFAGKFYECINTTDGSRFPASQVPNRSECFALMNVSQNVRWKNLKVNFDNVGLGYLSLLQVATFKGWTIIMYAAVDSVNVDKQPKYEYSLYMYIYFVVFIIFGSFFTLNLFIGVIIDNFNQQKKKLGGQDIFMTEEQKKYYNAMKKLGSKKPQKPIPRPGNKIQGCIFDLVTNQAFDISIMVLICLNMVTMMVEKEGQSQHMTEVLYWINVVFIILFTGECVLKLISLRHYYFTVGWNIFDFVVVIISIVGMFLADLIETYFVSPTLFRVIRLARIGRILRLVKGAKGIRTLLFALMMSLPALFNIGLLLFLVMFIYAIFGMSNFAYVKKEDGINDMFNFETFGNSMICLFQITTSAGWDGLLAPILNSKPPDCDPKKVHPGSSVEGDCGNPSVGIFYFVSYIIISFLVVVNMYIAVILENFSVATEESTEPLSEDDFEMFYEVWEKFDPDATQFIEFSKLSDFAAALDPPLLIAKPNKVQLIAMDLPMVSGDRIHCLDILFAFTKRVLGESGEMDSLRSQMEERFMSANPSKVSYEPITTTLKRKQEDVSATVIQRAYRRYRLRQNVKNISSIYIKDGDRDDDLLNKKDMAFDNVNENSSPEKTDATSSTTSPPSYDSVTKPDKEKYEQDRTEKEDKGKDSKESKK
Chain of hNav1.7 (Q07699 19-218 partner): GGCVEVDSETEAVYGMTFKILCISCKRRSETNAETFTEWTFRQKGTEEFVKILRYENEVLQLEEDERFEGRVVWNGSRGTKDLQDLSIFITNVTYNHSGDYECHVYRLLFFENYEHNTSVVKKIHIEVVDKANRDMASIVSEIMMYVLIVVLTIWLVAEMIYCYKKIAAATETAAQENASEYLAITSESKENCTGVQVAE
Settings: not given
On to `C[C@H](c1cc(Cl)cc(Cl)c1)N1C[C@@H]2C[C@H]1CN2Cc1cc(F)c(C(=O)NS(=O)(=O)C2CC2)cc1C1CC1` (single isomer, unassigned) [Example 563, trifluoroacetic acid salt], for which the IC50 is 4.2 nM.

Turning to `Cn1nc(-c2ccccc2)cc1CN1CCC[C@@H](Oc2cc(F)c(C(=O)NS(C)(=O)=O)cc2C2CC2)C1` [Example 12, (R)-5-cyclopropyl-2-fluoro-4-((1-((1-methyl-3-phenyl-1H-pyrazol-5-yl)methyl)piperidin-3-yl)oxy)-N-(methylsulfonyl)benzamide], the IC50 was 11.3 nM. On to `CC(=O)N1CCC[C@@H](Oc2cc(F)c(C(=O)NS(=O)(=O)C3CC3)cc2C2CC2)C1` [Example 4, (R)-4-((1-acetylpiperidin-3-yl)oxy)-5-cyclopropyl-N-(cyclopropylsulfonyl)-2-fluorobenzamide], for which the IC50 was 6600 nM. On the same count and under the same terms, the result for `Cc1ccc(CN2CCC[C@@H](Oc3cc(F)c(C(=O)NS(=O)(=O)C4CC4)cc3C3CC3)C2)cc1` [Example 32, (R)-5-cyclopropyl-N-(cyclopropylsulfonyl)-2-fluoro-4-((1-(4-methylbenzyl)piperidin-3-yl)oxy)benzamide] reads 5.4 nM.

Still in this test, the particulars now being: read-out: Ligand Binding Assay; 100 pM [3H]compound, membranes with hNav1.7 and β1 subunit, 18 h, room temperature.
As to `CC1(COc2cc(F)c(C(=O)NS(C)(=O)=O)cc2C2CC2)CCN(Cc2cc(Cl)cc(Cl)c2)CC1` [Example 123, 5-cyclopropyl-4-((1-(3,5-dichlorobenzyl)-4-methylpiperidin-4-yl)methoxy)-2-fluoro-N-(methylsulfonyl)benzamide], the IC50 was found to be 2.9 nM. `COC[C@@H](c1ccc(F)c(C(F)(F)F)c1)N1CCC(COc2cc(F)c(C(=O)NS(C)(=O)=O)cc2C2CC2)CC1` (single isomer, unassigned) [Example 187]: the IC50 is 5 nM. Same read-out and setting: the result for `CS(=O)(=O)NC(=O)c1cc(C2CC2)c(OCC2CCN(Cc3ccc(C(F)(F)F)c(Cl)c3)CC2)cc1F` [Example 220, 4-((1-(3-Chloro-4-(trifluoromethyl)benzyl)piperidin-4-yl)methoxy)-5-cyclopropyl-2-fluoro-N-(methylsulfonyl)benzamide] reads 17 nM; that for `O=C(NS(=O)(=O)C1CC1)c1cc(C2CC2)c(CN2[C@@H]3CC[C@H]2CC(Oc2cc(C(F)(F)F)cc(Cl)c2F)C3)cc1F` (stereo partly drawn) [Example 470, 4-(((1R,3r,5S)-3-(3-chloro-2-fluoro-5-(trifluoromethyl)phenoxy)-8-azabicyclo[3.2.1]octan-8-yl)methyl)-5-cyclopropyl-N-(cyclopropylsulfonyl)-2-fluorobenzamide, trifluoroacetic acid salt], 3.8 nM. For `CC(C)N(C(=O)CN1CCC[C@@H](Oc2cc(F)c(C(=O)NS(C)(=O)=O)cc2C2CC2)C1)C(C)C` [Example 179], the IC50 was 1800 nM. As for `C[C@@H](c1ccc(Cl)cc1Cl)N1CCC(COc2cc(F)c(C(=O)NS(C)(=O)=O)cc2C2CC2)CC1` [Example 238, (S)-5-cyclopropyl-4-((1-(1-(2,4-dichlorophenyl)ethyl)piperidin-4-yl)methoxy)-2-fluoro-N-(methylsulfonyl)benzamide], the IC50 was 2.2 nM. Regarding `CS(=O)(=O)NC(=O)c1cc(C2CC2)c(OCC2CCN(C(c3cc(Cl)cc(Cl)c3)C(F)(F)F)CC2)cc1F` (stereo not shown) [Example 299, 5-cyclopropyl-4-((1-(1-(3,5-dichlorophenyl)-2,2,2-trifluoroethyl)piperidin-4-yl)methoxy)-2-fluoro-N-(methylsulfonyl)benzamide], the IC50 amounted to 1.9 nM.

On to `C[C@H]1CC[C@@H](Oc2cc(F)c(C(=O)NS(C)(=O)=O)cc2C2CC2)CN1Cc1ccc(F)cc1Cl` [Example 324, 4-(((3R,6S)-1-(2-chloro-4-fluorobenzyl)-6-methylpiperidin-3-yl)oxy)-5-cyclopropyl-2-fluoro-N-(methylsulfonyl)benzamide], for which the IC50 amounted to 2.7 nM. In the case of `Cc1cc(F)ccc1CN1CCC[C@@H](Oc2cc(F)c(C(=O)NS(C)(=O)=O)cc2C2CC2)C1` [Example 431, (R)-5-cyclopropyl-2-fluoro-4-((1-(4-fluoro-2-methylbenzyl)piperidin-3-yl)oxy)-N-(methylsulfonyl)benzamide, trifluoroacetic acid salt], the IC50 worked out at 3.2 nM. Consider `CS(=O)(=O)NC(=O)c1cc(C2CC2)c(OCC2CCN(S(=O)(=O)c3cccc(C(F)(F)F)c3)CC2)cc1F` [Example 374, 5-cyclopropyl-2-fluoro-N-(methylsulfonyl)-4-((1-((3-(trifluoromethyl)phenyl)sulfonyl)piperidin-4-yl)methoxy)benzamide], for which the IC50 turned out to be 23.1 nM.

For the molecule `CS(=O)(=O)NC(=O)c1cc(C2CC2)c(OCC2CN([C@H](c3ccccc3)c3ccc(F)cc3)C2)cc1F` [Example 145, (R)-5-Cyclopropyl-2-fluoro-4-((1-((4-fluorophenyl)(phenyl)methyl)-azetidin-3-yl)methoxy)-N-(methylsulfonyl)benzamide], the IC50 is 6.22 nM.

For the molecule `O=C(NS(=O)(=O)C(F)F)c1cc(C2CC2)c(OCC2CN(C(c3ccccc3)c3ccccc3)C2)cc1F` [Example 62], the IC50 turned out to be 47 nM.

In the case of `C[C@H]1[C@H](Oc2cc(F)c(C(=O)NS(C)(=O)=O)cc2C2CC2)CCCN1Cc1cc(Cl)cc(Cl)c1` [Example 331, 5-cyclopropyl-4-(((2S,3R)-1-(3,5-dichlorobenzyl)-2-methylpiperidin-3-yl)oxy)-2-fluoro-N-(methylsulfonyl)benzamide, trifluoroacetic acid salt], the IC50 was found to be 32.2 nM. Still for that read-out and setting: the result for `CS(=O)(=O)NC(=O)c1cc(C2CC2)c(OCC2CCN(CC3(C(F)(F)F)CCCC3)CC2)cc1F` [Example 329, 5-cyclopropyl-2-fluoro-N-(methylsulfonyl)-4-((1-((1-(trifluoromethyl)cyclopentyl)methyl)piperidin-4-yl)methoxy)benzamide trifluoroacetic acid salt] reads 3.3 nM; that for `CS(=O)(=O)NC(=O)c1cc(C2CC2)c(OCC2CCN(Cc3ccc(F)cc3)CC2)cc1F` [Example 161, 5-Cyclopropyl-2-fluoro-4-((1-(4-fluorobenzyl)piperidin-4-yl)methoxy)-N-(methylsulfonyl)benzamide], 284 nM; that for `O=C(NS(=O)(=O)N1CCC1)c1cc(C2CC2)c(CN2CCC(OCc3ccc(F)cc3Cl)CC2)cc1F` [Example 479, N-(azetidin-1-ylsulfonyl)-4-((4-((2-chloro-4-fluorobenzyl)oxy)piperidin-1-yl)methyl)-5-cyclopropyl-2-fluorobenzamide, trifluoroacetic acid salt], 55.3 nM. Turning to `CS(=O)(=O)NC(=O)c1cc(C2CC2)c(OCC2CN(S(=O)(=O)c3cc(Cl)cc(Cl)c3)C2)cc1F` [Example 274, 5-Cyclopropyl-4-((1-((3,5-dichlorophenyl)sulfonyl)azetidin-3-yl)methoxy)-2-fluoro-N-(methylsulfonyl)benzamide], the IC50 is 68 nM. Turning to `CS(=O)(=O)NC(=O)c1cc(C2CC2)c(OCC2(F)CN(Cc3ccccc3)C2)cc1F` [Example 66, 4-((1-benzyl-3-fluoroazetidin-3-yl)methoxy)-5-cyclopropyl-2-fluoro-N-(methylsulfonyl)benzamide], the IC50 came to 91 nM. As for `CC(C)(C)c1ccc(CN2CCC[C@@H](Oc3cc(F)c(C(=O)NS(C)(=O)=O)cc3C3CC3)C2)cc1` [Example 425, (R)-4-((1-(4-(tert-butyl)benzyl)piperidin-3-yl)oxy)-5-cyclopropyl-2-fluoro-N-(methylsulfonyl)benzamide, trifluoroacetic acid salt], the IC50 stood at 2.9 nM. For the molecule `C[C@H](c1cc(Cl)cc(Cl)c1F)N1CCC(COc2cc(F)c(C(=O)NS(C)(=O)=O)cc2C2CC2)CC1` (single isomer, unassigned) [Example 237], the IC50 is 2.9 nM. With `CC(C)Oc1ncc([C@H](c2ccccc2)N2CC(COc3cc(F)c(C(=O)NS(C)(=O)=O)cc3C3CC3)C2)cc1Cl` [Example 114, (S)-4-((1-((5-Chloro-6-isopropoxypyridin-3-yl)(phenyl)methyl)azetidin-3-yl)methoxy)-5-cyclopropyl-2-fluoro-N-(methylsulfonyl)benzamide], the IC50 amounted to 7.27 nM. Still for that read-out and setting: the result for `O=C(NS(=O)(=O)C1CC1)c1cc(C2CC2)c(OCC2CCN(C(c3ccccc3)c3cc(Cl)cc(Cl)c3)CC2)cc1F` (stereo not shown) [Example 411, 5-cyclopropyl-N-(cyclopropylsulfonyl)-4-((1-((3,5-dichlorophenyl)(phenyl)methyl)piperidin-4-yl)methoxy)-2-fluorobenzamide, trifluoroacetic acid salt] reads 0.8 nM; that for `CC1(COc2cc(F)c(C(=O)NS(C)(=O)=O)cc2C2CC2)CCN(C2(c3cc(Cl)cc(Cl)c3)COC2)CC1` [Example 178, 5-Cyclopropyl-4-((1-(3-(3,5-dichlorophenyl)oxetan-3-yl)-4-methylpiperidin-4-yl)methoxy)-2-fluoro-N-(methylsulfonyl)benzamide], 7.6 nM. For `CS(=O)(=O)NC(=O)c1cc(C2CC2)c(OCC2CCN(Cc3ccc(Cl)c(F)c3)CC2)cc1F` [Example 138, 4-((1-(4-Chloro-3-fluorobenzyl)piperidin-4-yl)methoxy)-5-cyclopropyl-2-fluoro-N-(methylsulfonyl)benzamide], the IC50 was found to be 11.2 nM. In the case of `CS(=O)(=O)NC(=O)c1cc(C2CC2)c(OCC2CCN([C@@H](CO)c3cc(Cl)cc(Cl)c3)CC2)cc1F` [Example 266], the IC50 was determined as 91 nM. Turning to `COC[C@H](c1ccc(Cl)cc1Cl)N1CCC(COc2cc(F)c(C(=O)NS(C)(=O)=O)cc2C2CC2)CC1` [Example 282, (S)-5-cyclopropyl-4-((1-(1-(2,4-dichlorophenyl)-2-methoxyethyl)piperidin-4-yl)methoxy)-2-fluoro-N-(methylsulfonyl)benzamide], the IC50 stood at 4.4 nM.

Take `CS(=O)(=O)NC(=O)c1cc(C2CC2)c(OCC2CCN(Cc3ccccc3C#N)CC2)cc1F` [Example 149, 4-((1-(2-Cyanobenzyl)piperidin-4-yl)methoxy)-5-cyclopropyl-2-fluoro-N-(methylsulfonyl)benzamide]: the IC50 worked out at 73.7 nM.
